Test results taken from patent EP2945947B1, “INHIBITING THE TRANSIENT RECEPTOR POTENTIAL A1 ION CHANNEL” (Merck Sharp & Dohme Corp., priority 2013, dated 2014).
Converted amounts (≈) assume the structure as drawn. Where a name gives a salt, the structure may show the parent alone. Read-outs that look alike come from different tables or passages of the source.

Legend:
rat = assay: Rodent cold plate pain model, Complete Freund's Adjuvant (Example 4); format: in vivo; details: cold plate 1 °C, Figures 1 and 2
Experimental: CFA-induced pain test method reported in del Camino et al., J. Neurosci., 30 (45):15165-15174. Briefly, the right hind paw is sensitized to cold temperature (allodynic) by administering 0.1 mL of Complete Freund's Adjuvant (CFA) to that paw. Two to four days later, the time it takes for the animal to lift its CFA-injected paw from the cold surface is recorded compared to its un-injected normal left hind paw. […] To avoid tissue damage, the maximum cut-off time is five minutes. Animals that are allodynic (average PWL to the first three pain behaviors <150 seconds for the CFA-injected hind paw: ∼ ≥50% difference between the normal and CFA-injected paw) are included in the study and subsequently randomized across treatment groups. The following day, the animals in some groups are dosed with a test compound under blinded conditions. Following the one to two hour pre-treatment time, the post-dose PWL readings are taken again. The efficacy of the drug treatment is assessed by comparing the PWL in the drug treatment animals to those that receive the vehicle.

human TRPA1 = human TRPA1 (Homo sapiens, UniProt O75762); assay: Inhibition of the TRPA1 ion channel, whole cell patch configuration (Example 1); format: cell-based; details: current activation 10 µM AITC, read-out: Human TRPA1 IC50 Inward Current
human TRPA1, sequence (O75762 whole entry): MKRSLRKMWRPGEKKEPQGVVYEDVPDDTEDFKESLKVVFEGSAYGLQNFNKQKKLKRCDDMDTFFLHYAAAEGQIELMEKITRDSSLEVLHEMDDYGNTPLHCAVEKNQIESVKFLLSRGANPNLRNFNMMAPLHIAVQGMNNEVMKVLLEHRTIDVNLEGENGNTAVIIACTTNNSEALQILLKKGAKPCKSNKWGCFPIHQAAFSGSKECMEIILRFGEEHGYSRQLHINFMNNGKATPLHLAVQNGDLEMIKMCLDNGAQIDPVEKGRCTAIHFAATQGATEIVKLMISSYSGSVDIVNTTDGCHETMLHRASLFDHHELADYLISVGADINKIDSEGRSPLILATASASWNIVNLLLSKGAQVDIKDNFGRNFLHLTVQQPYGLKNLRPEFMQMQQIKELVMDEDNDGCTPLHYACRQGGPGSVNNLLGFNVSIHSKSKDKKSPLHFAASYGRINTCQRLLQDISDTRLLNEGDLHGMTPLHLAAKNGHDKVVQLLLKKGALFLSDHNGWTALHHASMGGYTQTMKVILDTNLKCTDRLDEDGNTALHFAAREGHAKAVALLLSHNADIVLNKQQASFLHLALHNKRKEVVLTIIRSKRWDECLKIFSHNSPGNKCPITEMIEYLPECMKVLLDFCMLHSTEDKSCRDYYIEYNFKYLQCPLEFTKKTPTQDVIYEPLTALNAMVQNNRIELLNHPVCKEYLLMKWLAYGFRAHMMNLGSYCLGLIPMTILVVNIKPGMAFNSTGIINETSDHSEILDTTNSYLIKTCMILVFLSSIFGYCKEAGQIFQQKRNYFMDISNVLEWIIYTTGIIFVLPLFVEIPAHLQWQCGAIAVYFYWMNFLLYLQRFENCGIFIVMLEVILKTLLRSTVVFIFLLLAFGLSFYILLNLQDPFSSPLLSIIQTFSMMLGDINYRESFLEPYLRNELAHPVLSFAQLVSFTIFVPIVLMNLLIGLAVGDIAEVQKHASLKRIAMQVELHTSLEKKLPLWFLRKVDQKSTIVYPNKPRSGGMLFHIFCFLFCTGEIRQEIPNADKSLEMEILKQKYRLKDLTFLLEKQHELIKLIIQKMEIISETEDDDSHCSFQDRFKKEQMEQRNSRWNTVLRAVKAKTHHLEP
Experimental: Compounds of Formula (Ia) inhibit the TRPA1 channel, as measured using the method of Example 1. […] Data for TRPA1 inhibition and for TRPA1 selectivity was obtained by this method for the indicated compounds of Formula (Ia), with the relevant data included in Tables 1a - f below. All currents were recorded in whole-cell configuration using EPC-9 and EPC-10 amplifiers and Patchmaster software (HEKA). […] The standard pipette solution consisted of 140mM CsAsp, 10 mM EGTA, 10 mM HEPES, 2.27 mM MgCl2, 1.91 mM CaCl2, 4 mM MgATP, and 0.1-0.3 mM Na2GTP, with pH adjusted to 7.2 with CsOH. In addition, a solution containing 145 mM CsCl, 10 mM HEPES, 10 mM EGTA and 1 mM MgCl2 (pH 7.2 adjusted with CsOH) can be used. The standard bath solution contained 150 mM NaCl, 10 mM HEPES, 10 mM glucose, 4.5 mM KCl, 1 mM EGTA, 3 mM MgCl2, with pH adjusted to 7.4 with NaOH. In some instances, 2 mM CaCl2 was added in place of EGTA and the concentration of MgCl2 was reduced to 1 mM.
Data were collected either by continuous recordings at -60 mV or by applying voltage ramps from a holding potential of 0 mV every 4 s. Continuous recordings were collected at 400 Hz and digitally filtered off-line at 10 Hz for presentation. Voltage ramps were applied from - 100 mV to 100 mV over the course of 400 ms, and data were collected at 10 kHz and filtered at 2.9 kHz. Inward and outward currents were analyzed from the ramps at -80 and 80 mV, respectively. Liquid junction potential correction was not used.
Solutions were switched using a gravity-fed continuous focal perfusion system. To achieve rapid temperature changes, two temperature control, and perfusion systems were employed simultaneously. For temperatures ≥ 22°C, a Warner Instruments bipolar temperature controller (TC-344B) and inline heater (SHM-8) were used. […] Temperatures were confirmed using a thermistor (Warner Instruments, TA-29), with temperatures at the recorded cell estimated to be within +/- 2°C of those reported.
The antagonist effects of compounds of Formula (Ia) against human TRPA1 ("hTRPA1") and for some compounds rat TRPA1 ("rTRPA1") in a whole cell patch configuration were evaluated using the in vitro assay described above. The current activation tested was 10 µM AITC, and the tested concentrations ranged from 5 µM and 500 nM. Table 1a (Comparative Compounds)

[1] = Aqueous solubility in buffered solutions, HPLC (Example 2); format: physicochemical; details: kinetic from dmso stock, ambient temperature
rats [2] = assay: Rodent formalin pain model (Example 3); format: in vivo; details: rat; for Minimal Efficacious Dose of Compound in Formalin Model: IV, statistically significant difference vs vehicle at 0 - 2 min (p≤0.05); for Duration of Pain Behavior: first two minutes after formalin, vehicle 88.6
Experimental: Compounds of Formula (Ia) are active in rodent models of pain induced by direct activation of the TRPA1 channel with intraplantar injection of the TRPA1 agonist formalin. Compounds of Formula (Ia) were tested in the formalin-induced pain test reported by Abbott et. al. Pain. 1995 Jan;60(1):91-102. Dubuisson et al. describe a method for assessing pain and analgesia in rats. Briefly, dilute formalin (50 µL of 3 % formalin) is injected into the plantar surface of the hind paw. […] The individual responsible for counting the pain behaviors in a particular study is blinded to the treatment groups.
Table 2 is a data table showing the results from testing compounds of Formula (Ia) in the rodent formalin-induced pain model described in […]. Rats were treated with the compounds of Formula (Ia) at various doses (0.1, 0.3, 1, 1.2, 3, 4, 10, or 30 mg/Kg IV) or with a control composition containing the vehicle (i.e., without a compound of Formula (Ia)). Pain behaviors (flinch, lift, lick, bite) were monitored following intraplantar formalin injection. Referring to Table 2, the minimum effective dose was derived from dose resulting in statistically significant difference in behavior at 0 - 2 min time period as compared with vehicle (p≤0.05).

[3] = tested on: Female Sprague Dawley rats; assay: Rodent acute tolerability test with liver function tests (Example 5); format: in vivo, rat; set-up: key to Alterations in LFT: (↔) indicates blood levels of markers for potential liver damage within normal range; (↑) indicates blood levels of markers for potential liver damage elevated above normal range; details: for Alterations in LFT / LFT: % upper normal range ALT serum levels / LFT: % upper normal range AST serum levels: single IV bolus dose 100 mg/kg, about 24 hours post dose
Experimental: Compounds of Formula (Ia) were assessed for acute tolerability in a rodent model at dose levels ranging from 100 - 200 mg/kg based upon the minimum efficacious dose of each compound. Female Sprague Dawley rats were administered up to a 10 mL/kg dose volume of each compound in 0.9% saline at appropriate concentrations as an intravenous bolus via the lateral tail vein. The animals were observed immediately post dose and for up to twenty four hours post dose and clinical observations were recorded. Additionally, approximately twenty four hours post dose animals were euthanized and blood taken for serum chemistry analysis with a focus on liver function tests (LFTs). The maximum tolerated single dose and LFT results are summarized in Table 3, where (↔) indicates blood levels of markers for potential liver damage within normal range and (↑) indicates blood levels of markers for potential liver damage elevated above normal range. Referring to the data in Table 3, LFT blood levels of markers for potential liver damage remained within normal range for the compounds of Formula (Ia), while LFTs were elevated for Comparator Compounds including 5-10 fold elevation above normal for ALT and AST blood levels observed upon administration of Comparative Compound 1. […]

rats [4] = assay: Single-dose toxicity studies in rats (Example 7); format: in vivo
Experimental: (§1) In one single dose PK study conducted in fed and fasted rats, oral administration of Comparative Compound 2 in 30% HPCD produced adverse clinical signs in some of the fasted rats only.
(§2) Intravenous administration of Comparative Compound 2 (a nanosuspension formulation in 0.5% polysorbate 80 and 0.1% Poloxamer 188 and 0.8%NaCl) at dose levels of 3, 10, and 30 mg/kg as a single slow bolus (∼2 min) to male SD rat was well-tolerated.
(§3) Intravenous administration of Compound 1-B as a single, 30-minute infusion to SD female rats was well-tolerated at dose levels up to 300 mg/kg. No adverse clinical signs were observed concerning Compound 1-B.
(§4) Intravenous administration of Compound 5-T as a single, 30-minute infusion to SD female rats was well-tolerated at dose levels up to 300 mg/kg. No adverse clinical signs were observed concerning Compound 5-T.
(§5) A single oral dose administration of Compound 5-T in a Spray Dried Dispersion (SDD) formulation (a suspension of SDD powder) at nominal doses of 3, 30, 100, and 300 mg/kg to fed female Sprague Dawley rats were well-tolerated. No adverse clinical signs were observed concerning Compound 5-T.

[5] = Single-dose toxicity studies in rats (Example 7); format: in vivo; details: rat, in vivo; single IP administration 100 mg/Kg, rats; read-out: plasma Cmax
Experimental: as §1, §2, §3, §4, §5

[6] = sodium bicarbonate buffer in water for injection/5% dextrose, pH 9.0, 50 mM sodium bicarbonate, read-out: pH 9.0 aqueous solubility
[7] = sodium phosphate buffer in water for injection/5% dextrose, pH 7.4, 75 mM sodium phosphate, read-out: pH 7.4 aqueous solubility

For `CC(C(=O)N(COP(=O)(O)O)c1cccc(-c2cnc(N3CCCC3C(F)(F)F)nc2)n1)n1cnc2c1c(=O)n(C)c(=O)n2C` (centres unmarked) [Compound 1-A, phosphate, sodium salt], the “Paw Withdrawal Latency, CFA cold allodynia” value (rat) was “reversal of CFA Cold Allodynia”, the IC50 (human TRPA1) was greater than 100 nM and the solubility kinetic at 24 h [1, 6] was greater than 1000 µg/mL. The solubility kinetic at 24 h [1, 7] was greater than 1000 µg/mL, the “Minimal Efficacious Dose of Compound in Formalin Model” value (rats [2]) was 1.2 mg/kg and the “Duration of Pain Behavior” value (rats [2]; dose 0.3 mg/kg IV) was 77.7 s. For the same compound, the “Duration of Pain Behavior” value (rats [2]; dose 1.2 mg/kg IV) was 43.3 s, the “Duration of Pain Behavior” value (rats [2]; dose 4 mg/kg IV) was 19.8 s and the “Alterations in LFT” value [3] was “↔”. The “LFT: % upper normal range ALT serum levels” value [3] was less than 100%/<100% and the “LFT: % upper normal range AST serum levels” value [3] was less than 100%/<100%.

`C[C@@H](C(=O)N(COP(=O)(O)O)c1cncc(-c2cnc(N3CCCC3(C)C)nc2)n1)n1cnc2c1c(=O)n(C)c(=O)n2C` [Compound 2-E, (S)-(2-(1,3-dimethyl-2,6-dioxo-1,2,3,6-tetrahydro-7H-purin-7-yl)-N-(6-(2-(2,2-dimethylpyrrolidin-1-yl)pyrimidin-5-yl)pyrazin-2-yl)propanamido)methyl dihydrogen phosphate] showed an IC50 (human TRPA1) greater than 100 nM, a solubility kinetic at 24 h [1, 6] greater than 1000 µg/mL and a solubility kinetic at 24 h [1, 7] greater than 1000 µg/mL. The “Minimal Efficacious Dose of Compound in Formalin Model” value (rats [2]) was 3 mg/kg, the “Duration of Pain Behavior” value (rats [2]; dose 0.3 mg/kg IV) was 80.4 s and the “Duration of Pain Behavior” value (rats [2]; dose 1 mg/kg IV) was 77 s. The “Duration of Pain Behavior” value (rats [2]; dose 3 mg/kg IV) was 15.1 s, the “Alterations in LFT” value [3] was “↔” and the “LFT: % upper normal range ALT serum levels” value [3] was less than 100%/<100%. For the same compound, the “LFT: % upper normal range AST serum levels” value [3] was less than 100%/<100%.

With `C[C@H]1CCCN1c1ncc(-c2cccc(NC(=O)Cn3cnc4c3c(=O)n(C)c(=O)n4C)n2)cn1` [Comparator 2, reference compound] the “Paw Withdrawal Latency, CFA cold allodynia” value (rat) was “significantly less potency”, the tolerability (rats [4]; IV single slow bolus, nanosuspension formulation, 3, 10, and 30 mg/kg, male SD rat) was “well-tolerated” and the clinical observations (rats [4]; IV single slow bolus, nanosuspension formulation, all three dose levels (3, 10, 30 mg/kg), ~1hr postdose, male SD rat) was “Mild flushing/mild swelling of the ears”. The clinical signs (rats [4]; single IP administration 100 mg/Kg, rats, approximately 30 minutes to 4 hours) was “mild to moderate lethargy”, the adverse clinical signs (rats [4]; single oral dose in 30% HPCD, 50 mg/kg and 100 mg/kg, fasted female rats only (two of three and one of three)) was “labored breathing and red urine” and the Cmax [5] was roughly 110 µg/mL. For the same compound, the IC50 (human TRPA1) was 76 to 100 nM, the solubility kinetic at 24 h ([1]; buffered solution (sodium acetate buffer), pH 4.0, 50mM sodium acetate in 5% dextrose, read-out: pH 4.0 aqueous solubility) was 9 µg/mL (≈ 18.9 µM) and the solubility kinetic at 24 h ([1]; buffered solution (sodium bicarbonate buffer), pH 9.0, 50 mM sodium bicarbonate, read-out: pH 9.0 aqueous solubility) was 10 µg/mL (≈ 21 µM). For the same compound, the solubility kinetic at 24 h ([1]; buffered solution (sodium phosphate buffer), pH 7.4, 75 mM sodium phosphate, read-out: pH 7.4 aqueous solubility) was 7 µg/mL (≈ 14.7 µM) and the “serum biomarkers of hepatotoxicity” value ([3]; animal studies of Example 5) was “did not elevate the serum biomarkers of hepatotoxicity”.
